Laboratory results reported in article PMC3914206.

What was measured:
Format in all cases: binding
Parameters in all cases: KINOMEscan: ABL1(F317L)-phosphorylated / KINOMEscan: ABL1(H396P)-nonphosphorylated / KINOMEscan: ABL1(H396P)-phosphorylated / KINOMEscan: ABL1(M351T)-phosphorylated / KINOMEscan: ABL1(T315I)-phosphorylated / KINOMEscan: ABL1-nonphosphorylated / KINOMEscan: ABL1-phosphorylated / KINOMEscan: ACVR2A / KINOMEscan: ACVR2B / KINOMEscan: ADCK3 / KINOMEscan: ADCK4 / KINOMEscan: AKT1 / KINOMEscan: AKT3 / KINOMEscan: ALK / KINOMEscan: ARK5 / KINOMEscan: AURKA / KINOMEscan: AURKC / KINOMEscan: BIKE / KINOMEscan: BMPR1A / KINOMEscan: BMPR1B / KINOMEscan: BMX / KINOMEscan: BRK / KINOMEscan: BRSK1 / KINOMEscan: BRSK2 / KINOMEscan: CAMK1 / KINOMEscan: CAMK1D / KINOMEscan: CAMK1G / KINOMEscan: CAMK2A / KINOMEscan: CAMK2B / KINOMEscan: AAK1 / KINOMEscan: CAMK2D / KINOMEscan: CAMK2G / KINOMEscan: ABL1(F317I)-nonphosphorylated / KINOMEscan: ABL1(F317I)-phosphorylated / KINOMEscan: ABL1(F317L)-nonphosphorylated: unit: % Ctrl
Settings in all cases: Compound Concentration 10 µM
[1] = molecular target: T1, panel of 442 kinases (Homo sapiens, UniProt P49760)
T1 construct: purchased KINOMEscan
Source text: (§1) We assessed the selectivity of members of this scaffold using the KINOMEscan methodology across a near comprehensive panel of 442 kinases [[18,27]].

[2] = molecular target: T2, panel of 442 kinases (Homo sapiens, UniProt O14920)
T2 construct: purchased KINOMEscan
T2 sequence (O14920 1-756): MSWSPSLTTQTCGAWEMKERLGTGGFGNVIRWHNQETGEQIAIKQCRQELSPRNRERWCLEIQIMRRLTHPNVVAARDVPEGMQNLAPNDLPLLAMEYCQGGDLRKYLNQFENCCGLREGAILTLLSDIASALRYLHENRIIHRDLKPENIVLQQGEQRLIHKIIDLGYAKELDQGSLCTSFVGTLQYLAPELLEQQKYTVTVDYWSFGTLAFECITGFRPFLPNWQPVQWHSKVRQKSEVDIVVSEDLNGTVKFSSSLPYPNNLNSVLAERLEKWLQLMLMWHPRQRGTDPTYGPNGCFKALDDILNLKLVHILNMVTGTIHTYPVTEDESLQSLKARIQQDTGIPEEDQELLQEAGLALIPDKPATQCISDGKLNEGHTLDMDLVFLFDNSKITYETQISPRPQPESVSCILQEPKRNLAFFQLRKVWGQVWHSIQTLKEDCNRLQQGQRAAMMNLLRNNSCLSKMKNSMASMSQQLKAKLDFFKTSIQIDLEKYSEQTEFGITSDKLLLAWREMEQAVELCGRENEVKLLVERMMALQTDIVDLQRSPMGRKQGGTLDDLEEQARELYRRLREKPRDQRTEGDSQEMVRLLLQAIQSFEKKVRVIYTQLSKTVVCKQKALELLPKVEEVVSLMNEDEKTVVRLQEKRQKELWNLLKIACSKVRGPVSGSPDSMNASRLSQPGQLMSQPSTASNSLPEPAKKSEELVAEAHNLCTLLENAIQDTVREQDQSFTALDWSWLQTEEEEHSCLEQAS
Source text: as §1

[3] = molecular target: T3, panel of 442 kinases (Homo sapiens, UniProt P00519, H396P)
T3 construct: purchased KINOMEscan
Source text: as §1

T1 sequence (P49760 whole entry): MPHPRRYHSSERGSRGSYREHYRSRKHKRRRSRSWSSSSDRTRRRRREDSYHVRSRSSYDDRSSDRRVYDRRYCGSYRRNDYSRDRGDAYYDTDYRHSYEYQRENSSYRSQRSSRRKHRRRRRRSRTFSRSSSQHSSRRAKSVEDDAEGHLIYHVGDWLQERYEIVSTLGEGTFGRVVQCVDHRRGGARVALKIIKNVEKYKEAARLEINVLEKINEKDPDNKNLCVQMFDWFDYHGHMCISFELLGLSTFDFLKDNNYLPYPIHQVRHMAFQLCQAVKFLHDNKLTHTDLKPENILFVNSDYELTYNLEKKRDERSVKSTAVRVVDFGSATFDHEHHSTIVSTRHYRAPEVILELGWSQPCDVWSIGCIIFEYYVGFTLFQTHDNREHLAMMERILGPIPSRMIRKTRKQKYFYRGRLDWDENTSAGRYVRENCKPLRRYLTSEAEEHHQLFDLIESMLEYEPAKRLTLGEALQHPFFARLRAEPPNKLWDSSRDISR

Compound | KINOMEscan: CLK2 [1] | KINOMEscan: IKK-beta [2] | KINOMEscan: ABL1(H396P)-nonphosphorylated [3] | KINOMEscan: ABL1(H396P)-phosphorylated [3]
COc1cc(C(=O)N2CCC(N3CCN(C)CC3)CC2)ccc1Nc1ncc2c(n1)N(C1CCCC1)c1ccccc1C(=O)N2C [Compound 25, 11-cyclopentyl-2-((2-methoxy-4-(4-(4-methylpiperazin-1-yl)piperidine-1-carbonyl)phenyl)amino)-5-methyl-5H-benzo[e]pyrimido[5,4-b][1,4]diazepin-6(11H)-one] | 79 | 100 | 47 | 100
CCOc1cc(C(=O)N2CCC(N3CCN(C)CC3)CC2)ccc1Nc1ncc2c(n1)N(C1CCCC1)c1ccccc1C(=O)N2C [Compound 26] | 86 | 99 | 86 | 100
COc1cc(C(=O)N2CCC(N3CCN(C)CC3)CC2)ccc1Nc1ncc2c(n1)N1CCc3cccc(c31)C(=O)N2C [Compound 24] | 25 | – | 34 | 100
COc1cc(C(=O)N2CCC(N3CCN(C)CC3)CC2)ccc1Nc1ncc2c(n1)N(C)c1ccccc1C(=O)N2C [15 (LRRK2-IN-1)] | 72 | 89 | 100 | 100
